Results reported in patent US20190336494A1, “[…] COMPOUNDS FOR TREATING AGITATION” (Concert Pharmaceuticals, Inc., priority 2015, published 2019).

Tests used:
[1] = Metabolic stability of test compounds using human liver microsomes; format: in vitro ADME; settings: for half-life at 1 µM: human, pH 7.4, 1.0 mg/mL HLM, 1 μM test compound, 2 mM NADPH, 37° C., 0-30 minutes, read-out: Ave. t1/2 (n = 2), calculated half-life in human liver microsomes; for Change over non-deuterated compound (t1/2): vs Dimemorfan
Protocol: Example 4. Determination of Metabolic Stability of Test Compounds using Human Liver Microsomes. Human liver microsomes (20 mg/mL) were obtained from Xenotech, LLC (Lenexa, Kans.). β-nicotinamide adenine dinucleotide phosphate, reduced form (NADPH), magnesium chloride (MgCl2), and dimethyl sulfoxide (DMSO) were purchased from Sigma-Aldrich.
7.5 mM stock solutions of test compounds were prepared in DMSO. The 7.5 mM stock solutions were diluted to 50 μM in acetonitrile (ACN). The 20 mg/mL human liver microsomes were diluted to 1.25 mg/mL (1 mg/mL final) in 0.1 M potassium phosphate buffer, pH 7.4, containing 3 mM MgCl2. The diluted microsomes (375 μL) were added to wells of a 96-well polypropylene plate in triplicate. 10 μL of the 50 μM test compound was added to the microsomes and the mixture was pre-warmed for 10 minutes. Reactions were initiated by addition of 125 μL of pre-warmed NADPH solution. The final reaction volume was 0.5 mL and contained 1.0 mg/mL human liver microsomes, 1 μM test compound, and 2 mM NADPH in 0.1 M potassium phosphate buffer, pH 7.4, and 3 mM MgCl2. The reaction mixtures were incubated at 37° C., and 50 μL aliquots were removed at 0, 5, 10, 20, and 30 minutes and added to shallow 96-well plates which contained 50 μL of ice-cold ACN with internal standard to stop the reactions. The plates were stored at 4° C. for 20 minutes after which 100 μL of water was added to the wells of the plate before centrifugation to pellet precipitated proteins. Supernatants were transferred to another 96-well plate and analyzed for amounts of parent remaining by LC-MS/MS using an Applied Bio-systems API 4000 mass spectrometer.
7-ethoxy coumarin was used as a positive control.
The in vitro t1/2s for test compounds were calculated from the slopes of the linear regression of % parent remaining (In) vs incubation time relationship:
in vitro t 1/2=0.693/k, where k=-[slope of linear regression of % parent remaining(In) vs incubation time]
(§1) Data analysis was performed using Microsoft Excel Software.

[2] = Effect of quinidine on metabolic stability in extensive metabolizer human liver microsomes; format: in vitro ADME; settings: EM HLM
Protocol: Materials: Individual donor with extensive metabolizer human liver microsomes (EM HLM, 20 mg/mL) with CYP2D6 activity of 957±19 pmol/mg protein/min, genotyped for CYP2D6 allelic variant-CYP2D6*1/*2x2, were obtained from Xenotech, LLC (Lenexa, Kans.). β-nicotinamide adenine dinucleotide phosphate, reduced form (NADPH), magnesium chloride (MgCl2), dimethyl sulfoxide (DMSO), acetonitrile (ACN), quinidine, and dextromethorphan (DM) were purchased from Sigma-Aldrich. Dimemorfan and d6-dimemorfan (Compound 100) were synthesized by Adesis, Inc.
Determination of Metabolic Stability: 1.0 mg/mL stock solutions of test compounds dextromethorphan, dimemorfan, and d6-dimemorfan (Compound 100) were prepared in DMSO. The 1.0 mg/mL stock solutions were diluted to 10,000 ng/mL in acetonitrile (ACN). A 10 mM stock solution of quinidine was prepared in acetonitrile, which was then diluted further in acetonitrile to produce 20 μM, 10 μM, 5 μM, 2.5 μM, and 1.25 μM solutions of quinidine. The human liver microsomes were diluted to 1.25 mg/mL in 0.1 M potassium phosphate buffer, pH 7.4, containing 3 mM MgC12. The diluted microsomes were added to wells of a 96-well deep-well polypropylene plate in triplicate. A 5 μL aliquot of each 10,000 ng/mL test compound was added to the microsomes, and the mixture was pre-warmed at 37° C. for 7 minutes, then a 5 μL aliquot of each quinidine solution was added (except in control wells where no quinidine was added). Reactions were initiated by addition of pre-warmed NADPH solution to the mixture. The final reaction volume was 0.5 mL and contained 1.0 mg/mL human liver microsomes, 100 ng/mL of test compound, 0.2, 0.1, 0.05, 0.025, 0.0125, or 0 μM of quinidine, and 2 mM NADPH in 0.1 M potassium phosphate buffer, pH 7.4, and 3 mM MgCl2. The reaction mixtures were incubated at 37° C., and 50 μL aliquots were removed at 0, 15, 30, and 60 minutes and added to shallow-well 96-well plates which contained 50 μL of ice-cold ACN with internal standard to stop the reactions. The plates were stored at 4° C. for 20 minutes after which 100 μL of water was added to the wells of the plate before centrifugation to pellet precipitated proteins. Supernatants were transferred to another 96-well plate and analyzed for amounts of parent remaining by LC-MS/MS using an Applied Bio-systems mass spectrometer. Amount of parent remaining was quantified via standard curve.
The in vitro t1/2's for test compounds were calculated from the slopes of the linear regression of % parent remaining (In) vs. incubation time relationship. • in vitro t1/2=0.693/k • k=-[slope of linear regression of % parent remaining(In) vs incubation time]
The apparent intrinsic clearance was calculated using the following equation:
CLint (mL/min/kg)=(0.693/in vitro t1/2) (Incubation Volume/mg of microsomes)
(45 mg microsomes/gram of liver) (20 gm of liver/kg b.w.)
as §1

SMILES	half-life at 1 µM [1]	Change over non-deuterated compound (t1/2) [1]	% Δ (D6-Dimemorfan/Dimemorfan), deuterium effect on half-life ([2]; Quinidine 0 μM)	Ratio (D6-Dimemorfan/Dimemorfan) of Clint, app ([2]; Quinidine 0 μM)	% Δ (D6-Dimemorfan/Dimemorfan), deuterium effect on half-life ([2]; Quinidine 0.0125 μM)	Ratio (D6-Dimemorfan/Dimemorfan) of Clint, app ([2]; Quinidine 0.0125 μM)	% Δ (D6-Dimemorfan/Dimemorfan), deuterium effect on half-life ([2]; Quinidine 0.025 μM)	Ratio (D6-Dimemorfan/Dimemorfan) of Clint, app ([2]; Quinidine 0.025 μM)	% Δ (D6-Dimemorfan/Dimemorfan), deuterium effect on half-life ([2]; Quinidine 0.05 μM)	Ratio (D6-Dimemorfan/Dimemorfan) of Clint, app ([2]; Quinidine 0.05 μM)	% Δ (D6-Dimemorfan/Dimemorfan), deuterium effect on half-life ([2]; Quinidine 0.1 μM)	Ratio (D6-Dimemorfan/Dimemorfan) of Clint, app ([2]; Quinidine 0.1 μM)	% Δ (D6-Dimemorfan/Dimemorfan), deuterium effect on half-life ([2]; Quinidine 0.2 μM)	Ratio (D6-Dimemorfan/Dimemorfan) of Clint, app ([2]; Quinidine 0.2 μM)
[2H]C([2H])([2H])c1ccc2c(c1)[C@]13CCCC[C@@H]1[C@H](C2)N(C([2H])([2H])[2H])CC3 [Compound 100, (+)-3-(Methyl-d3)-17-(methyl-d3)-(9α, 13α, 14α)-morphinan]	31.6 min	37%	35%	0.74	59%	0.61	3%	0.96	11%	0.90	22%	0.82	−12%	1.11
[2H]C([2H])([2H])c1ccc2c(c1)[C@]13CCCC[C@@H]1[C@H](C2)N(C)CC3 [Compound 102, (+)-3-(Methyl-d3)-17-methyl-(9α, 13α, 14α)-morphinan]	28 min	21%												
Cc1ccc2c(c1)[C@]13CCCC[C@@H]1[C@H](C2)N(C)CC3 [Dimemorfan, (+)-(9α, 13α, 14α)-3,17-dimethylmorphinan, reference compound]	23.1 min													
